Experimental data: patent publication US12102607B2, “C5aR inhibitors for use in the treatment of chemotherapy-induced iatrogenic pain” (Dompe' Farmaceutici S.P.A., priority 2017, dated 2024)

Columns and labels:
[1] = system: paclitaxel-induced mechanical allodynia in male Balb/C mice; assay: Paclitaxel-induced mechanical allodynia, Dynamic Plantar Aesthesiometer, DF3966A; type: in vivo; settings: 30 mg/kg/os twice daily day 1 to 14; days 3, 5, 7, 10 and 14
Protocol: (§1) For the experiments with DF3966A, animals were housed in the animal care facility of the Department of Pharmacy of the University of Naples, Italy, in a room with controlled temperature (22±1° C.), humidity (60±10%) and light (12 h per day); food and water were available ad libitum. All behavioural tests were performed between 9:00 AM and 5:00 PM, and the animals were used only once. Animal care and manipulations were conducted in conformity with International and National law and policies (EU Directive 2010/63/EU for animal experiments, ARRIVE guidelines and the Basel declaration including the 3R concept). The procedure reported here were approved by the Institutional Committee on the Ethics of Animal Experiments (CVS) of the University of Naples Federico II and by Ministero della Salute under protocol n. 2014-00884607.
The protocol used was performed according POLOMANO et al., 2001, adapted to mice. The animals received paclitaxel 4 mg/kg intraperitoneally (i.p.) for four alternate days (days 1, 3, 5, and 7). During treatment period, mechanical and cold allodynia were measured 4 hours after the injection of paclitaxel.
DF3966A was administrated 30 mg/kg/os from 1st at 14th day (twice daily; 8.00 am and 20.00 pm). […]
In DF3966A experiments, sensitivity to tactile stimulation was measured using the Dynamic Plantar Aesthesiometer (DPA, Ugo Basile, Italy). […]

[2] = system: paclitaxel-induced cold allodynia in male Balb/C mice; assay: Paclitaxel-induced cold allodynia, DF3966A; type: in vivo; settings: 30 mg/kg/os twice daily day 1 to 14; days 3, 5, 7, 10 and 14
Protocol: as §1
The protocol used was performed according POLOMANO et al., 2001, adapted to mice. The animals received paclitaxel 4 mg/kg intraperitoneally (i.p.) for four alternate days (days 1, 3, 5, and 7). During treatment period, mechanical and cold allodynia were measured 4 hours after the injection of paclitaxel. […]
In the same apparatus of von Frey test, and nearly 15 minutes after the mechanical test, was performed the acetone test. […] All movements as licking, flinching or lifting of paw were recorded with a chronometer in a total testing time of 2 minutes.

C[C@H](c1ccc(Nc2nc(C(F)(F)F)cs2)cc1)c1nnn[nH]1 [DF3966A, 1-N-[4-[(1R)-1-(1H-tetrazol-5-yl)ethyl]phenyl}-4-(trifluoromethyl)-11,3-thiazol-2-amine]
mechanical allodynia vs vehicle control animals [1]: significant reduction of mechanical allodynia | cold allodynia vs vehicle control animals [2]: significant reduction of cold allodynia
